Measured values from publication PMC6476273, “Engineering a Model Cell for Rational Tuning of GPCR Signaling” (Cell, 2019).
Read-outs that look alike come from different tables or passages of the source. Ends that are not written are not given here.

Key:
human A2BR receptor [1] = biological target: T1, human A2BR receptor (Homo sapiens, UniProt P29275); experiment: Adenosine dose-response, A2BR single strain and three-strain consortium, sfGFP by plate reader; assay type: cell-based; settings: for Hill slope: plate reader
T1 sequence (P29275 1-332): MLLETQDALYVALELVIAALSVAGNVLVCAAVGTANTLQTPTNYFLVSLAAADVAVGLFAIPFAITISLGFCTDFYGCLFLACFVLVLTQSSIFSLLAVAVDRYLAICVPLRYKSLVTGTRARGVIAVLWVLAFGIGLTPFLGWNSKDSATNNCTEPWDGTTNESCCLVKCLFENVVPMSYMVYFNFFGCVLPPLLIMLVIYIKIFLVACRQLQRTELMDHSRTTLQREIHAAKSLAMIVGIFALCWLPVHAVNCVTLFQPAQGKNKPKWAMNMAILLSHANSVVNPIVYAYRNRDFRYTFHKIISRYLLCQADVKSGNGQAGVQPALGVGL
T1 sequence (P08539 2-472 partner): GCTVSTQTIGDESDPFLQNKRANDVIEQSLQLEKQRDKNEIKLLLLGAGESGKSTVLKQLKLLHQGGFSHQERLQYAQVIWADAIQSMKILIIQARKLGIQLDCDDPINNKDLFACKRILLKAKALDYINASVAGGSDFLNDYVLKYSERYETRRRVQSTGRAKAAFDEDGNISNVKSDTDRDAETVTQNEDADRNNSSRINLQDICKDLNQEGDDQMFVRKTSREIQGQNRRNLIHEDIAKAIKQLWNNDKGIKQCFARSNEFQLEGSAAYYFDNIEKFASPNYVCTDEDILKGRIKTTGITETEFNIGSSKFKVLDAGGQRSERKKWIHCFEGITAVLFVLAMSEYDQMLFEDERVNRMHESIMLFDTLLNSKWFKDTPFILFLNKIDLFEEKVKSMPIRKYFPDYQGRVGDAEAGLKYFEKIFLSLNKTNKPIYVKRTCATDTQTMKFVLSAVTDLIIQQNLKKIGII

human A2BR receptor [2] = biological target: T1, human A2BR receptor; experiment: Adenosine dose-response, A2BR sensor strain, sfGFP by flow cytometry; assay type: cell-based; settings: Fig S6C, wild-type Gpa1, triplicate isolates
human MTNR1A receptor [3] = biological target: T2, human MTNR1A receptor (Homo sapiens, UniProt P48039)
T2 sequence (P48039 whole entry, one chain of several): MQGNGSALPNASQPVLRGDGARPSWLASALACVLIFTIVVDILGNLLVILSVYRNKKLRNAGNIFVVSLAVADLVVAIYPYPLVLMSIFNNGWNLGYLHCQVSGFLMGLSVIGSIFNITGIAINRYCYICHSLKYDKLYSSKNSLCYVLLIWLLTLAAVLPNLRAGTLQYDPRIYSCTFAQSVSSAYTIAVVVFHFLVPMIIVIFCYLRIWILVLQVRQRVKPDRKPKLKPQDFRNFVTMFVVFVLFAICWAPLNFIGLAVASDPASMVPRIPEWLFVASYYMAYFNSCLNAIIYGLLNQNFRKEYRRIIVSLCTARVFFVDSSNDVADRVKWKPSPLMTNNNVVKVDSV

human MTNR1A receptor [4] = biological target: T2, human MTNR1A receptor; settings: for Hill slope: plate reader
Mam2 receptor = biological target: T3, Mam2 receptor (Schizosaccharomyces pombe, UniProt Q00619); experiment: P-factor dose-response, Mam2 sensor strain in yWS677, sfGFP by flow cytometry; assay type: cell-based
T3 construct: expressed in transfected cells; host or cells: Saccharomyces cerevisiae yWS677 (BY4741 derivative), chromosomally integrated YTK cassette
T3 sequence (Q00619 1-348): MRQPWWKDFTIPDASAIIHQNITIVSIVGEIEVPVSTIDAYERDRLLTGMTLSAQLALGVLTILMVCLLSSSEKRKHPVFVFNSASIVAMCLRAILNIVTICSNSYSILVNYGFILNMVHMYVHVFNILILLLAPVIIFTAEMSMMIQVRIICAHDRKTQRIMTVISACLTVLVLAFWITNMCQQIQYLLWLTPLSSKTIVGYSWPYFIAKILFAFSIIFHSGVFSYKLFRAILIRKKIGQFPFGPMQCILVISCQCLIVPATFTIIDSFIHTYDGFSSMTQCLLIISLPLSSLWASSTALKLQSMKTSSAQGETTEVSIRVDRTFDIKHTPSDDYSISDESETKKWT

[5] = test system: P. brasiliensis Ste2 homolog (PbSte2); settings: PbSte2 in S. cerevisiae; ref Ostrov et al., 2017; cited from earlier work
From the text: (§1) (D) The ... || For pathogen detection, we next set out to tune a point-of-care sensor for Paracoccidioides brasiliensis, recently developed by [Ostrov et al. (2017)]. This yeast GPCR-based sensor, utilizing the Ste2 homolog from P. brasiliensis (PbSte2), detects environmental levels of pheromone peptide released by haploid P. brasiliensis cells (PbPeptide) as a means of specifically detecting this human pathogen in complex samples (Figure 6E).

[6] = test system: P. brasiliensis Ste2 homolog (PbSte2); experiment: PbPeptide dose-response, PbSte2 sensor single cell and two-cell amplifier-receiver consortium, GFP by plate reader; assay type: cell-based, Paracoccidioides brasiliensis
From the text: as §1, with “For” for “(D) The ... || For”, “6E). […] To optimize these two properties, we applied our amplifier-receiver two strain approach to the PbSte2 sensor (Figures 6F–6H).” for “6E).”

Ste2 = experiment: α-factor dose-response of pheromone response pathway strains, sfGFP by flow cytometry; assay type: cell-based, Saccharomyces cerevisiae
[7] = three-strain consortium 1:1:1 vs initial response

Molecule: Nc1ncnc2c1ncn2[C@@H]1O[C@H](CO)[C@@H](O)[C@H]1O [Adenosine]
- Hill slope (human A2BR receptor [1]; Fig 5B, single pop.): 1.41 ± 0.10
- operational range (human A2BR receptor [1]; Fig 5B, single pop., span between 5% and 95% of the activated response): 1.56 ± 0.07 orders of magnitude
- operational range (human A2BR receptor [1]; Fig 5C legend, consortia of three engineered strains): 3.3 orders of magnitude
- Hill slope (human A2BR receptor [1]; Fig 5C, mixed pop. of three strains 1:1:1): 0.78 ± 0.02
- operational range (human A2BR receptor [1]; Fig 5C, mixed pop. of three strains 1:1:1, span between 5% and 95% of the activated response): 3.27 ± 0.08 orders of magnitude
- change in Hill slope (human A2BR receptor [1]; [7]): almost halved the Hill slope
- increase in operational range (human A2BR receptor [1]; [7]): 50 -fold
- Hill slope (human A2BR receptor [2]): 1.32 ± 0.08

Molecule: COc1ccc2[nH]cc(CCNC(C)=O)c2c1 [Melatonin]
- Hill slope (human MTNR1A receptor [3]; Fig S6D, MTNR1A sensor strain, wild-type Gpa1, flow cytometry, triplicate isolates): 0.80 ± 0.04
- linear range of dose-response (human MTNR1A receptor [3]; two-strain consortia, Fig 6B): four
- operational range (human MTNR1A receptor [4]; Fig 5F legend, single population): 3.8 orders of magnitude
- Hill slope (human MTNR1A receptor [4]; Fig 5F, single pop.): 0.69 ± 0.03
- operational range (human MTNR1A receptor [4]; Fig 5F, single pop., span between 5% and 95% of the activated response): 3.79 ± 0.15 orders of magnitude
- Hill slope (human MTNR1A receptor [4]; Fig 5G, mixed pop., tuned two-strain system 1:1): 1.65 ± 0.06
- operational range (human MTNR1A receptor [4]; Fig 5G, mixed pop., two-strain system, span between 5% and 95% of the activated response): 1.48 ± 0.19 orders of magnitude

Molecule: TYADFLRAYQSWNTFVNPDRPNL [P-factor]
- EC50 (Mam2 receptor; Fig 4D, Mam2 - yWS677, 4 h induction, 1 % DMSO, SC medium, 30°C, sfGFP flow cytometry, mean ± SD, triplicate isolates): 117 nM
- potency (EC50) compared with native S. pombe response (Mam2 receptor; Mam2 sensor strain vs S. pombe (Croft et al., 2013)): identical potency (EC50)

Molecule: WCTRPGQGC [PbPeptide]
- sensitivity [5]: nanomolar sensitivity
- detection range ([6]; CCW12 promoter and signal amplification, two-strain consortia): picomolar range
- narrowing of operational range ([6]; amplifier-receiver two strain consortia): 1,000 -fold

Molecule: WHWLQLKPGQPMY [α-factor, S. cerevisiae peptide pheromone, ligand of Ste2]
- activation at 100 pM ɑ-factor on Ste2 overexpression (Ste2; Design 4 strain with 2x and 3x Ste2 (pCCW12), Fig S4H): unchanged
- sensitivity and signal output compared with BY4741 (Ste2; Quasi-WT strain, FUS1 promoter-sfGFP): substantial increase in sensitivity and signal output
- sensitivity compared with Quasi-WT (Ste2; design 3 strain (Gpa1 by PGK1, Ste2 by pCCW12), Fig 4A-B): approached the sensitivity of the Quasi-WT strain
